Experimental data as given in BindingDB's records for doi:10.1021/jm5003759 (University of Copenhagen, 2014).

Biological target: T1, 5-hydroxytryptamine receptor 2C (Homo sapiens, UniProt P28335)
T1 sequence (P28335 whole entry): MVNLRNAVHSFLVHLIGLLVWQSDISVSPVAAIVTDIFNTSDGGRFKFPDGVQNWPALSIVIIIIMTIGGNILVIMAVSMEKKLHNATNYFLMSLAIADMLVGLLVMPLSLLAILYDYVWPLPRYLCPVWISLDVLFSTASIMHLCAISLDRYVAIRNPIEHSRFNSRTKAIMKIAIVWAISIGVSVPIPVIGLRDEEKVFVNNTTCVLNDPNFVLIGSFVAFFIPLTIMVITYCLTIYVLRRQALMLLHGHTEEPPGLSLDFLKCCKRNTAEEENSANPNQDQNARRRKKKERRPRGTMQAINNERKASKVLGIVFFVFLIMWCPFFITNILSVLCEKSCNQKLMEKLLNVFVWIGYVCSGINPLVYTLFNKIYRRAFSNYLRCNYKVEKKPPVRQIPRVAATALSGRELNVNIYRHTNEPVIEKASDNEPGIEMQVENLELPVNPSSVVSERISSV
Experiment: Displacement of [3H]5-HT from human recombinant 5-HT2C receptor expressed in mouse 3T3 cells

- Ki: 2040 nM
Compound: CNc1cc(NS(=O)(=O)c2ccc(N)cc2)cc(NC)n1 [Ro-63-0563]
